Assay results published in ChEMBL document CHEMBL3580612, “Top-down Targeted Metabolomics Reveals a Sulfur-Containing Metabolite with Inhibitory Activity against Angiotensin-Converting Enzyme in Asparagus officinalis” (J Nat Prod, 2015).

Biological target: Angiotensin-converting enzyme (Homo sapiens, UniProt P12821)
Experiment: Inhibition of ACE (unknown origin) using 3-Hydroxybutylyl-Gly-Gly-Gly substrate assessed as reduction in 3-Hyroxybutylic acid generation incubated for 1 hr by colorimetric assay; call rule not given here

Sequence of Angiotensin-converting enzyme (P12821 whole entry): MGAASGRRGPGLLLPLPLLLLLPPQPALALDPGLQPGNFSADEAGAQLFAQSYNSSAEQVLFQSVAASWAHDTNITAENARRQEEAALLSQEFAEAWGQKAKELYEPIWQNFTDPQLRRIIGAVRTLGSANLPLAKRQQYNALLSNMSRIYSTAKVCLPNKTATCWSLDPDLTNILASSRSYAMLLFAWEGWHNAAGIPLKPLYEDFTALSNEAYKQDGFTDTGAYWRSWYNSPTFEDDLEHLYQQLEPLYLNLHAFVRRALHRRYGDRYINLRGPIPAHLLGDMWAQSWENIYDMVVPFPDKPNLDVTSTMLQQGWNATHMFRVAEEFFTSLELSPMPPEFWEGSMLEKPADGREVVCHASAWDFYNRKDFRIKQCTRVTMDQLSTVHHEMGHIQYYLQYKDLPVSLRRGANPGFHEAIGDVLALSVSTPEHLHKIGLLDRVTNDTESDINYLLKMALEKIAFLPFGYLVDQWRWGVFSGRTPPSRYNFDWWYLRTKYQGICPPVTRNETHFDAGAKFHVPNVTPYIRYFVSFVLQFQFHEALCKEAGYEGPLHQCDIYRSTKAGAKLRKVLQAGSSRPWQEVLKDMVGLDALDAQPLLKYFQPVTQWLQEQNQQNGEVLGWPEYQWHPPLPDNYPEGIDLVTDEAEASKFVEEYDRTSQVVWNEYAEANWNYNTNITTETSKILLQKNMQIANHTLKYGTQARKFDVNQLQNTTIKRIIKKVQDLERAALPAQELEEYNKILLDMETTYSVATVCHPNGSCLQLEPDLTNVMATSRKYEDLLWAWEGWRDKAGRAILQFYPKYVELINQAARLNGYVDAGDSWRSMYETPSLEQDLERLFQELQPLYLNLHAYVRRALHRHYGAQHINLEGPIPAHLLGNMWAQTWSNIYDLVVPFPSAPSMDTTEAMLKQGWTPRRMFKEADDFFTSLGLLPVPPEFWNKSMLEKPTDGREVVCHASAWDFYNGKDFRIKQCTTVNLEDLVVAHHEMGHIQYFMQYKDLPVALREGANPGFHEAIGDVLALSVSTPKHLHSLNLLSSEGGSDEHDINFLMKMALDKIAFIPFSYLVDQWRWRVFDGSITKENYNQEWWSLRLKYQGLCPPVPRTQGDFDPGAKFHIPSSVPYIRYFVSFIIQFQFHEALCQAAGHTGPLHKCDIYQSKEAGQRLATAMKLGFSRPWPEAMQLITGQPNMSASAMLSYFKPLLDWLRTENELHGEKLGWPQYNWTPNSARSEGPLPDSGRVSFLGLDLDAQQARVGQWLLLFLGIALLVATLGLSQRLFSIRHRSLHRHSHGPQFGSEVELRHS

Row | IC50 (read-out: IC50) [µM] | SMILES | IC50
1 | – | N[C@@H](CC(=O)O)C(=O)O [ASPARTIC ACID] | Not Active
2 | 347 | O=C(OC1O[C@H](CO)[C@@H](O)[C@H](O)[C@H]1O)C1CSSC1 (stereo not given in full) | –
3 | – | O=C(O)C1CSSC1 | Not Active
4 | – | N=C(N)NCCC[C@@H](N)C(=O)O | Not Active
5 | – | N=C(N)NCCC[C@H](N)C(=O)O [ARGININE] | Not Active
